In US12637430B2, “Interleukin-17 (IL-17) inhibitors” (priority 2020, dated 2026):
pIC50: −log10 of the molar value.

How the values were obtained:
human IL-17A = target: T1, human IL-17A (Homo sapiens, UniProt Q16552); test: IL-17A enzyme-linked immunosorbent assay (competitive ELISA, IL-17A/IL-17R binding)
T1 construct: purchased Sino Biological Inc. 12047-H07B
T1 sequence (Q16552 24-155): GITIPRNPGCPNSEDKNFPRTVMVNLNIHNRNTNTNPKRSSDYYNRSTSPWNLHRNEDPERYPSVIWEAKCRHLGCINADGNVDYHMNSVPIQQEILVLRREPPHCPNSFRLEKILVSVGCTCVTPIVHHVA
Protocol: The inhibition of receptor-ligand binding by human IL-17A inhibitors was quantified by competitive ELISA. 0.2 μg/mL of IL-17A (Sino Biological Inc. Cat #12047-H07B) was added in a 96-well plate at 100 μl per well for incubation for 30 min under 37° C. The 96-well plate was washed with PBST (PBS, 0.05% Tween-20) at 200 μl per well for 4 times, and then added with 200 μl of 5% skim milk and placed on a shaker for incubation at 25° C. for 30 min. The compound to be tested was prepared at 100× concentration ranging from 0.003 μM to 30 μM. After washed with PBST (PBS, 0.05% Tween-20) 4 times, the plate was added with 89 μl of PBST and 1 μl of the compound to be tested at 100× concentration followed by uniformly mixing and pre-incubation at 25° C. for 10 min. Then the plate was added with 10 μl of 16 nM IL-17R, and incubated on a shaker at 25° C. for 30 min. After washed for 4 times, the plate was added with 100 μl of anti-Fc-tag horseradish peroxidase (HRP)-conjugated antibody, and incubated on a shaker at 25° C. for 30 min. After washed 4 times, the plate was added with 100 μl of 3,3′, 5,5″-tetramethylbenzidine (TMB) substrate solution, and incubated at 25° C. in the dark. Then the plate was added with 20% HCl, followed by detection of the light absorption value at a wavelength of 450 nm by a microplate reader. The compounds prepared in the above examples were tested for human IL-17A inhibitory activity according to the above method.

human IL-17A protein = target: T2, human IL-17A protein (Homo sapiens, UniProt Q16552); test: Inhibition of chemokine GROα/CXCL1 generation induced by human IL-17A protein in HT-29 cell; type: cell-based
T2 construct: purchased R&D 317-ILB
T2 sequence (Q16552 20-155 limits assumed): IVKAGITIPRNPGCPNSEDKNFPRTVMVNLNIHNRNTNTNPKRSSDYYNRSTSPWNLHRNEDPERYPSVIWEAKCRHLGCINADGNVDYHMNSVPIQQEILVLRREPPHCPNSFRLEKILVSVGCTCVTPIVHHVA
Protocol: HT-29 (Zhongyuan Gongchuang Technology Co., Ltd. of Chengdu, Sichuan) was added to a 96-well plate at 5×10^4 cells/well, and cultured overnight in a incubator at 37° C. A mixture of 30 ng/mL of human IL-17A protein (R&D, #317-ILB) and IL-17A small molecule inhibitors with gradient concentrations or 0.3 μg/mL of positive control IL-17A antibody (R&D, #AF-317-NA) was incubated at 37° C. for 1 h, and then added to the above-mentioned 96-well plate, and incubated with HT-29 cells at 37° C. for 48 hours. Then the GROα level in the cell culture supernatant was detected by an ELISA kit (Cisbio, #62HCXC1PEG) of the GROα.
According to the methods described in Experimental Examples 1 and 2, the compounds prepared in the above-mentioned examples were subjected to the experiment on inhibition of chemokine GROα/CXCL1 generation induced by human IL-17A protein in HT-29 cell.

Row | SMILES | pIC50 (human IL-17A) | pIC50 (human IL-17A protein)
1 | Cn1nccc1C(=O)N[C@H](C(=O)Nc1ccc(C2CCOCC2)cc1)C(C1CCC1)C1(C)CC1 (stereo partly shown) [Compound 2] | 7.18 | 6.26
2 | Cn1nccc1C(=O)N[C@H](C(=O)Nc1ccc(C2CCOCC2)cn1)C(C1CCC1)C1(C)CC1 (stereo partly shown) [Compound 3] | 7.17 | 5.80
3 | Cn1nccc1C(=O)N[C@H](C(=O)Nc1cnc(C2CCOCC2)c(F)c1)C(C1CCC1)C1(C)CC1 (stereo partly shown) [Compound 4] | 7.19 | 6.22
4 | Cn1nccc1C(=O)N[C@H](C(=O)Nc1ccc(N2CCOCC2)nc1)C(C1CCC1)C1(C)CC1 (stereo partly shown) [Compound 8] | 6.63 | –
5 | C[C@@H]1COCCN1c1ccc(NC(=O)[C@@H](NC(=O)c2ccnn2C)C(C2CCC2)C2(C)CC2)cn1 (stereo partly shown) [Compound 10] | 7.39 | 5.13
6 | C[C@H]1COCCN1c1ccc(NC(=O)[C@@H](NC(=O)c2ccnn2C)C(C2CCC2)C2(C)CC2)cn1 (stereo partly shown) [Compound 11] | 7.25 | 4.97
7 | CC(C)[C@H]1COCCN1c1ccc(NC(=O)[C@@H](NC(=O)c2ccnn2C)C(C2CCC2)C2(C)CC2)cn1 (stereo partly shown) [Compound 12] | 7.40 | 4.87
8 | CC(C)[C@@H]1COCCN1c1ccc(NC(=O)[C@@H](NC(=O)c2ccnn2C)C(C2CCC2)C2(C)CC2)cn1 (stereo partly shown) [Compound 13] | 6.19 | –
9 | CC[C@H]1COCCN1c1ccc(NC(=O)[C@@H](NC(=O)c2ccnn2C)C(C2CCC2)C2(C)CC2)cn1 (stereo partly shown) [Compound 14] | 7.68 | 5.14
10 | CC[C@@H]1COCCN1c1ccc(NC(=O)[C@@H](NC(=O)c2ccnn2C)C(C2CCC2)C2(C)CC2)cn1 (stereo partly shown) [Compound 15] | 7.31 | 5.55
11 | C[C@@H]1CN(c2ccc(NC(=O)[C@@H](NC(=O)c3ccnn3C)C(C3CCC3)C3(C)CC3)cn2)CCO1 (stereo partly shown) [Compound 16] | 7.00 | 4.93
12 | Cn1nccc1C(=O)N[C@H](C(=O)Nc1ccc(N2CCOCC2C2CC2)nc1)C(C1CCC1)C1(C)CC1 (stereo partly shown) [Compound 17] | 6.87 | –
13 | Cn1nccc1C(=O)N[C@H](C(=O)Nc1ccc(N2CCOC[C@H]2CO)nc1)C(C1CCC1)C1(C)CC1 (stereo partly shown) [Compound 18] | 6.61 | –
14 | Cn1nccc1C(=O)N[C@H](C(=O)Nc1cnc(N2CCOCC2)c(F)c1)C(C1CCC1)C1(C)CC1 (stereo partly shown) [Compound 19] | 7.14 | 5.50
15 | CC1CN(C)CCN1c1ccc(NC(=O)[C@@H](NC(=O)c2ccnn2C)C(C2CCC2)C2(C)CC2)cn1 (stereo partly shown) [Compound 20] | 5.03 | –
16 | CCN1CCN(c2ccc(NC(=O)[C@@H](NC(=O)c3ccnn3C)C(C3CCC3)C3(C)CC3)cn2)[C@H](C)C1 (stereo partly shown) [Compound 21] | 4.77 | –
17 | CC(C)N1CCN(c2ccc(NC(=O)[C@@H](NC(=O)c3ccnn3C)C(C3CCC3)C3(C)CC3)cn2)C(C)C1 (stereo partly shown) [Compound 22] | 4.86 | –
18 | Cn1nccc1C(=O)N[C@H](C(=O)Nc1ccc2c(c1)NC(=O)C21CCOCC1)C(C1CCC1)C1(C)CC1 (stereo partly shown) [Compound 23] | 7.37 | 7.19
19 | C[C@@H]1CN(c2ccc(NC(=O)[C@@H](NC(=O)c3ccnn3C)C(C3CCC3)C3(C)CC3)cn2)CCN1 (stereo partly shown) [Compound 24] | < 4.40 | –
20 | Cn1nccc1C(=O)N[C@H](C(=O)Nc1ccc2c(c1)NC(=O)C21CCOCC1)[C@H](c1ccccc1)C1(C)CC1 [Compound 25] | 7.49 | 6.38
21 | Cn1nccc1C(=O)N[C@H](C(=O)Nc1ccc2c(c1)NC(=O)C21CCOCC1)[C@H](c1ccccc1Cl)C1(C)CC1 [Compound 26] | 7.02 | 6.60
22 | CN1C(=O)C2(CCOCC2)c2ccc(NC(=O)[C@@H](NC(=O)c3ccnn3C)[C@H](c3ccccc3Cl)C3(C)CC3)cc21 [Compound 27] | 6.98 | 5.97
23 | Cn1nccc1C(=O)N[C@H](C(=O)Nc1ccc(C(C)(C)c2nnc(C3CCC3)o2)cc1)C(C1CCC1)C1(C)CC1 (stereo partly shown) [Compound 36] | 5.89 | –

Row | SMILES | pIC50 (human IL-17A) | pIC50 (human IL-17A protein)
24 | Cc1n[nH]c(C)c1-c1ccc(NC(=O)[C@@H](NC(=O)c2ccnn2C)C(C2CCC2)C2(C)CC2)cn1 (stereo partly shown) [Compound 37] | 7.74 | 6.59
25 | Cc1n[nH]c(C)c1-c1ccc(NC(=O)[C@@H](NC(=O)c2ccnn2C)C(C2CC2)C2CC2)cn1 [Compound 38] | 6.41 | 5.35
26 | CCn1nccc1C(=O)N[C@H](C(=O)Nc1ccc(-c2c(C)n[nH]c2C)nc1)C(C1CC1)C1CC1 [Compound 39] | 6.89 | 6.29
27 | Cc1n[nH]c(C)c1-c1ccc(NC(=O)[C@@H](NC(=O)c2ccnn2C(C)C)C(C2CC2)C2CC2)cn1 [Compound 40] | 6.93 | 6.11
28 | Cc1nonc1C(=O)N[C@H](C(=O)Nc1ccc(-c2c(C)n[nH]c2C)nc1)C(C1CC1)C1CC1 [Compound 41] | 5.94 | 5.83
29 | CCc1nocc1C(=O)N[C@H](C(=O)Nc1ccc(-c2c(C)n[nH]c2C)nc1)C(C1CC1)C1CC1 [Compound 42] | 6.77 | –
30 | CCc1nonc1C(=O)N[C@H](C(=O)Nc1ccc(-c2c(C)n[nH]c2C)nc1)C(C1CC1)C1CC1 [Compound 43] | 6.34 | –
31 | Cc1conc1C(=O)N[C@H](C(=O)Nc1ccc(-c2c(C)n[nH]c2C)nc1)C(C1CC1)C1CC1 [Compound 44] | 5.56 | –
32 | Cc1n[nH]c(C)c1-c1ccc(NC(=O)[C@@H](NC(=O)c2nocc2C(C)C)C(C2CC2)C2CC2)cn1 [Compound 45] | 6.29 | –
33 | Cc1nocc1C(=O)N[C@H](C(=O)Nc1ccc(-c2c(C)n[nH]c2C)nc1)C(C1CC1)C1CC1 [Compound 46] | 6.95 | 6.07
34 | Cc1n[nH]c(C)c1-c1ccc(NC(=O)[C@@H](NC(=O)c2ncnn2C)C(C2CC2)C2CC2)cn1 [Compound 47] | 4.81 | –
35 | Cc1n[nH]c(C)c1-c1ccc(NC(=O)[C@@H](NC(=O)c2nonc2C(C)C)C(C2CC2)C2CC2)cn1 [Compound 48] | 6.80 | 5.52
36 | Cc1n[nH]c(C)c1-c1ccc(NC(=O)[C@@H](NC(=O)c2ccn(C3CC3)n2)C(C2CC2)C2CC2)cn1 [Compound 49] | 6.27 | –
37 | Cc1n[nH]c(C)c1-c1ccc(NC(=O)[C@@H](NC(=O)c2ccnn2C2CC2)C(C2CC2)C2CC2)cn1 [Compound 50] | 4.55 | –
38 | CCn1nccc1C(=O)N[C@H](C(=O)Nc1cnc(-c2c(C)n[nH]c2C)c(F)c1)C(C1CC1)C1CC1 [Compound 52] | 7.01 | 6.49
39 | Cc1n[nH]c(C)c1-c1ccc(NC(=O)[C@@H](NC(=O)c2ccnn2C)C(C2CC2)C2(C)CC2)cn1 (stereo partly shown) [Compound 53] | 7.26 | 6.33
40 | CCn1nccc1C(=O)N[C@H](C(=O)Nc1ccc(-c2c(C)n[nH]c2C)nc1)C(C1CC1)C1(C)CC1 (stereo partly shown) [Compound 54] | 7.33 | 6.62
41 | Cc1nonc1C(=O)N[C@H](C(=O)Nc1ccc(-c2c(C)n[nH]c2C)nc1)C(C1CC1)C1(C)CC1 (stereo partly shown) [Compound 55] | 7.28 | 6.06
42 | Cc1n[nH]c(C)c1-c1ccc(NC(=O)[C@@H](NC(=O)c2ccnn2C(C)C)C(C2CC2)C2(C)CC2)cn1 (stereo partly shown) [Compound 56] | 7.46 | 7.06
43 | Cc1n[nH]c(C)c1-c1ncc(NC(=O)[C@@H](NC(=O)c2ccnn2C(C)C)C(C2CC2)C2(C)CC2)cc1F (stereo partly shown) [Compound 58] | 7.38 | 6.66
44 | Cc1nonc1C(=O)N[C@H](C(=O)Nc1cnc(-c2c(C)n[nH]c2C)c(F)c1)C(C1CC1)C1(C)CC1 (stereo partly shown) [Compound 59] | 7.06 | 5.33
45 | Cn1nccc1C(=O)N[C@H](C(=O)Nc1ccc(N2CCOCC2)nc1)[C@H](c1ccccc1Cl)C1(C)CC1 [Compound 60] | 6.49 | 5.10
46 | Cn1nccc1C(=O)N[C@H](C(=O)Nc1ccc(C2CCOCC2)cc1)[C@H](c1ccccc1Cl)C1(C)CC1 [Compound 62] | 7.25 | 6.43
